Measurements: patent US20040220268A1, “Compound that directly stimulates phospholipase C activity” (priority 2003, published 2004)

What was measured:
U937 cells = test: Formation of inositol phosphates in cells (in vivo PLC activity); format: cell-based, human
Experimental: U937 Cells were labeled with myo-[^3H] inositol (1 μCi/10^6 cells) for 24 h at 37° C. and then treated with various concentrations of m-3M3FBS or o-3M3FBS. Total inositol phosphates were eluted with a solution containing 1 M ammonium formate and 0.1 M formic acid. Radioactivity of the [3H] inositol phosphates was determined by counting in a scintillation counter. Data are presented as means ±S. E. M. of five independent experiments.
Cells grown in culture were harvested by centrifugation, washed with inositol-free RPMI 1640 medium, and resuspended at a density of 2×10^6 cells/ml in the same medium. The cells were then labeled with myo-[^3H] inositol (1 μCi/10^6 cells) for 24 h at 37° C. and rinsed twice with inositol-free RPMI 1640 medium containing 0.5% fetal bovine serum, 20 mM of Hepes at pH 7.2, 20 mM of LiCl, and bovine serum albumin (1 mg/ml) and then resuspended at a density of 2×10^7 cells/ml. A portion (0.1 ml) of the cell suspension was transferred to a microcentrifuge tube and incubated at 37° C. for 15 min. PIP2 hydrolysis was initiated by adding chemicals or solvents for the indicated times. Reactions were terminated by adding 200 μl of ice-cold 10% perchloric acid (HClO4). […] The radioactivity of the [3H] inositol phosphates was determined using a scintillation counter (Tri-Packard, Meriden, Conn.).

PLC β3 = target: T1, PLC β3 (Homo sapiens, UniProt Q01970); test: Phosphoinositide hydrolysis in vitro; format: biochemical; conditions: 25 μM; purified isozyme
T1 sequence (Q01970 1-1234): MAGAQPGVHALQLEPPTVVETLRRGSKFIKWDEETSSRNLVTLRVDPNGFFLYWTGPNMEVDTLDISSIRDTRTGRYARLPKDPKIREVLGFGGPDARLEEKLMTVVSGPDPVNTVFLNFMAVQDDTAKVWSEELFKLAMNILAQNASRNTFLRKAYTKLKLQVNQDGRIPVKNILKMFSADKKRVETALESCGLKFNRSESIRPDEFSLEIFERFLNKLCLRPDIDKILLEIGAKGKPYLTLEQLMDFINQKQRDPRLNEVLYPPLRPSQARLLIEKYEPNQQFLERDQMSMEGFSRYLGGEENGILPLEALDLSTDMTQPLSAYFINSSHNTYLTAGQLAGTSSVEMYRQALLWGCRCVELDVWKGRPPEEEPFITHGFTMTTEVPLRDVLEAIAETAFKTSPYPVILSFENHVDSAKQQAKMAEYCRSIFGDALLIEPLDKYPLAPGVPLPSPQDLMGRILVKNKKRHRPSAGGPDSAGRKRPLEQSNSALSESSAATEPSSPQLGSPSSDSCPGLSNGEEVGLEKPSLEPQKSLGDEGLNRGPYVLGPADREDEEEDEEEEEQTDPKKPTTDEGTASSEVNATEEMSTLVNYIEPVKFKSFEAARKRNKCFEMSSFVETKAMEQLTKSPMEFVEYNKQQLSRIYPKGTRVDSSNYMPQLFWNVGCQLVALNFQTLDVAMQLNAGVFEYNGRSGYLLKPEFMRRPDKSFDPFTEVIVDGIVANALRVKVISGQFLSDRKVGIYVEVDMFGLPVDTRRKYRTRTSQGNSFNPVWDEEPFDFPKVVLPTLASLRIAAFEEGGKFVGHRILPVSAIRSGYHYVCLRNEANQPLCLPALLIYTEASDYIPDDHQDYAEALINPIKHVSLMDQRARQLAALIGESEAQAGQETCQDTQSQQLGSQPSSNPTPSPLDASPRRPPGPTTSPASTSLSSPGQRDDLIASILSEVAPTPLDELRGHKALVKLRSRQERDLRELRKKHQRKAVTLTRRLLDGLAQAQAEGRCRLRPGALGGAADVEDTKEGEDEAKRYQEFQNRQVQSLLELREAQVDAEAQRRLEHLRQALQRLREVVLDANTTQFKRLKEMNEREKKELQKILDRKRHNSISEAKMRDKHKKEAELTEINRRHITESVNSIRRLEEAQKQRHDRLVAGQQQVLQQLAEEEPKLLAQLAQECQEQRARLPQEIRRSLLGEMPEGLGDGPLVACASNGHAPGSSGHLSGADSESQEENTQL
Experimental: The hydrolyzing activity of PtdIns-4,5-P2 was measured on mixed phospholipid vesicles containing 120 μM phosphatidylethanolamine, 30 μM PtdIns-4,5-P2, and 1 μCi/ml [3H] PtdIns-4,5-P2. Purified PLC β2, substrates, and the chemicals (2.5, 5, 10, 20, and 25 μM of m-3M3FBS or of o-3M3FBS) were coincubated (A), 25 μM of m-3M3FBS or o-3M3FBS, and phospholipid substrates were mixed with purified PLC β3, γ1, 2, or δ1 (B). Reactions were performed for 10 min at 37° C. in a 200 μl reaction mixture containing lipid micelles (5 μM [^3H] PtdIns-4,5-P2, 20,000 cpm). Reactions were stopped by adding 1 ml of CHCl3:CH3OH:HCl (50:50:0.3, v/v/v). Inositol trisphosphates were extracted with 0.5 ml of 1 M HCl/5 mM EGTA, and the radioactivity in the upper aqueous phase was measured. Data are presented as means ±S. E. M. of three independent experiments (A, B).
PLC activity was assayed using [^3H] PtdIns-4,5-P2 as a substrate (Min et al., 1993). PtdIns-4,5-P2-hydrolyzing activity was measured with mixed phospholipid micelles containing 120 μM phosphatidylethanolamine, 30 μM PtdIns-4,5-P2, and 1 μCi/ml [^3H] PtdIns-4,5-P2. The lipids, in chloroform, were dried under a stream of nitrogen gas, suspended in assay buffer (20 mM HEPES pH 7.0, 120 mM NaCl, 2 mM MgCl2, 40 or 100 μM CaCl2, and 1 mg/ml bovine albumin serum (Bayer, Leverkusen, Germany)), and sonicated. All proteins added to the reaction mixture were dialyzed overnight against the assay buffer. Incubation was performed for 10 min at 37° C. in a 200 μl reaction mixture containing lipid micelles (5 μM [3H] PtdIns-4,5-P2, 20,000 cpm). The reaction was stopped by adding 2 ml of CHCl3: CH3OH: HCl (50: 50: 0.3, v/v/v). The inositol triphosphates were extracted with 0.5 ml of 1 N HCl, and radioactivities in the upper aqueous phase were measured.

| Compound | fold increase of accumulation of inositol phosphates (U937 cells; 50 μM) | activity of PLC beta3 (PLC β3) | effect on PLC activity (inositol phosphate formation) (U937 cells) |
| --- | --- | --- | --- |
| Cc1cc(C)c(S(=O)(=O)Nc2cccc(C(F)(F)F)c2)c(C)c1 [m-3M3FBS, 2,4,6-Trimethyl-N-(meta 3-trifluoromethyl-phenyl)-benzenesulfonamide] | 2.5 fold | augmented the activity | – |
| Cc1cc(C)c(S(=O)(=O)Nc2ccccc2C(F)(F)F)c(C)c1 [o-3M3FBS, 2,4,6-Trimethyl-N-(ortho 3-trifluoromethyl-phenyl)-benzenesulfonamide, reference compound] | – | did not affect | no effect |
